One assay deals with T1, Mt-PTPa (Mycobacterium tuberculosis, UniProt P9WIA1).
T1 construct: made in house; host or cells: E. coli BL21(DE3)pLysS
As to the kind of experiment: Mt-PTPa phosphatase activity inhibition assay (hydrolysis of p-nitrophenyl phosphate, A405). It is filed as biochemical. As to conditions: for IC50 / Ki / inhibition of Mt-PTPa compared with vanadate: Mt-PTPa 10 µM; for IC50 / inhibition of Mt-PTPa compared with vanadate: pNPP 100 µM; for IC50: 37 °C, 10 min, compound 0-1000 µM, mean ± SD (n = 3); for Ki: Dixon plot analysis, inhibitor 0-100 µM, read-out: KI (inhibitor constant); for Ki / inhibition pattern (mechanism): pNPP 0.25-2.50 mM; for inhibition of Mt-PTPa compared with vanadate: at 25 and 50 µM; for inhibition pattern (mechanism): double-reciprocal analysis.

The target of assay [1] is protein tyrosine phosphatase 1B (PTP1B). Also on record: method as in PMID 34208908. The following applies: in vitro; cited from earlier work.
The subject of assay [2] is N-formyl-L-methionyl-L-leucyl-L-phenylalanine-induced protein tyrosine phosphorylation. Set-up: method as in PMID 9175722. The following applies: in neutrophils; cited from earlier work.

The text below walks through data of paper PMC10526854, “Shikonin and Juglone Inhibit Mycobacterium tuberculosis Low-Molecular-Weight Protein Tyrosine Phosphatase a (Mt-PTPa)” (BioTech, 2023).

T1 sequence (P9WIA1 whole entry): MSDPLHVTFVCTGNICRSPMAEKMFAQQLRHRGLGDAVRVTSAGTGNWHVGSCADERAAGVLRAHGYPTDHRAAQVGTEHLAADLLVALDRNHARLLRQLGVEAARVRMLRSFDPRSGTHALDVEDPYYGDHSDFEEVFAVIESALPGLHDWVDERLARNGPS

On to `O=c1c(O)c(-c2cc(O)c(O)c(O)c2)oc2cc(O)cc(O)c12` [Myricetin, myricetin], for which, on Mt-PTPa, the “initial library screen outcome” value is given as “hits” and the IC50 amounted to 250 ± 25 µM.
For `CC(C)=CC[C@@H](O)C1=CC(=O)c2c(O)ccc(O)c2C1=O` [Shikonin, 5,8-dihydroxy-2-[(1R)-1-hydroxy-4-methyl-3-pentenyl]-1,4-naphthoquinone], the IC50 in assay [1] was 15.5 µM. On Mt-PTPa, the “initial library screen outcome” value is reported as “hits”, the Ki was 8.5 µM, 33 ± 7 µM corresponded to half-maximal inhibition (IC50) and the “inhibition of Mt-PTPa compared with vanadate” value was “comparable levels of inhibition to vanadate”. At Mt-PTPa, the “inhibition pattern (mechanism)” value is “non-competitive”.
In the case of `O=C(/C=C/c1ccc(O)c(O)c1)O[C@H](Cc1ccc(O)c(O)c1)C(=O)O` [Rosmarinic Acid, rosmarinic acid], on Mt-PTPa, the “initial library screen outcome” value is given as “hits” and the IC50 was 900 ± 132 µM.
For the compound `CC(=O)O[C@H](CC=C(C)C)C1=CC(=O)c2c(O)ccc(O)c2C1=O` [acetylshikonin], the “reduction of protein tyrosine phosphorylation” value in assay [2] was 90%.
As to `O=C1C=CC(=O)c2c(O)cccc21` [Juglone, 5-hydroxy-1,4-naphthalenedione], on Mt-PTPa, the Ki was 12.5 µM, the “inhibition of Mt-PTPa compared with vanadate” value is on record as “comparable levels of inhibition to vanadate” and the “inhibition pattern (mechanism)” value was “non-competitive”.
Turning to `Oc1cc(O)c2c(c1)O[C@H](c1cc(O)c(O)c(O)c1)[C@H](O)C2` [Epigallocatechin, epigallocatechin], on Mt-PTPa, the “initial library screen outcome” value is given as “hits” and the IC50 was 492 ± 101 µM.
For `C[C@H]1[C@H](C)CC[C@]2(C(=O)O)CC[C@]3(C)C(=CC[C@@H]4[C@@]5(C)CC[C@H](O)C(C)(C)[C@@H]5CC[C@]43C)[C@H]12` [ursolic acid, reference compound], the IC50 in assay [1] was 8.72 µM.

In general, IC50 refers to the concentration that inhibits the measured activity by half. As usually defined, the Ki is a dissociation constant, usually derived from enzyme kinetics or from competition with a known ligand.
